Test results published in PubChem BioAssay (NCI).
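Protocol summary: plate cells (96-well), add compound at 5 concentrations, incubate 48 h, interpolate endpoints linearly. TGI: total growth inhibition.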

Assays:
Experiment in all cases: growth of human tumour cells (NCI), 48 h
[1] = system: MCF7 breast
[2] = system: ACHN renal
[3] = system: HCT-15 colon
[4] = system: SW-620 colon
[5] = system: RXF 393 renal
[6] = system: SK-MEL-2 melanoma
[7] = system: HOP-92 NSCLC
[8] = system: HOP-62 NSCLC
[9] = system: SF-268 CNS
[10] = system: SF-295 CNS
[11] = system: DU-145 prostate
[12] = system: NCI-H226 lung
[13] = system: RPMI-8226 leukemia
[14] = system: SK-MEL-5 melanoma
[15] = system: NCI-H23 lung
[16] = system: MDA-N
[17] = system: U251 CNS
[18] = system: MDA-MB-435
[19] = system: M14 melanoma
[20] = system: MDA-MB-231 breast
[21] = system: OVCAR-4 ovarian
[22] = system: NCI-H522 lung
[23] = system: UACC-62 melanoma
[24] = system: PC-3 prostate
[25] = system: 786-0 renal
[26] = system: SNB-19 CNS
[27] = system: OVCAR-5 ovarian
[28] = system: SNB-75 CNS
[29] = system: SK-OV-3 ovarian
[30] = system: TK-10 renal
[31] = system: K-562 leukemia
[32] = system: HCT-116 colon
[33] = system: SK-MEL-28 melanoma
[34] = system: SF-539 CNS
[35] = system: HCC-2998 colon
[36] = system: UO-31 renal
[37] = system: CAKI-1 renal
[38] = system: BT-549 breast
[39] = system: OVCAR-8 ovarian
[40] = system: T-47D breast
[41] = system: COLO 205 colon
[42] = system: A549 NSCLC
[43] = system: IGROV1 ovarian
[44] = system: HS 578T breast
[45] = system: UACC-257 melanoma
[46] = system: EKVX NSCLC
[47] = system: NCI-H460 lung
[48] = system: A498 renal
[49] = system: SN12C renal
[50] = system: HT29 colon
[51] = system: LOX IMVI melanoma
[52] = system: HL-60(TB) leukemia
[53] = system: CCRF-CEM leukemia
[54] = system: OVCAR-3 ovarian
[55] = system: MALME-3M melanoma
[56] = system: SR leukemia
[57] = system: NCI/ADR-RES ovarian
[58] = system: KM12 colon
[59] = system: MOLT-4 leukemia

Structure (SMILES): C=CCCC1CCCNC1=S (stereo not given)
- TGI [1]: > 100 µM
- TGI [2]: > 100 µM
- TGI [3]: > 100 µM
- TGI [4]: > 100 µM
- TGI [5]: > 100 µM
- TGI [6]: > 100 µM
- TGI [7]: > 100 µM
- TGI [8]: > 100 µM
- TGI [9]: > 100 µM
- TGI [10]: > 100 µM
- TGI [11]: > 100 µM
- TGI [12]: > 100 µM
- TGI [13]: > 100 µM
- TGI [14]: > 100 µM
- TGI [15]: > 100 µM
- TGI [16]: > 100 µM
- TGI [17]: > 100 µM
- TGI [18]: > 100 µM
- TGI [19]: > 100 µM
- TGI [20]: > 100 µM
- TGI [21]: > 100 µM
- TGI [22]: > 100 µM
- TGI [23]: > 100 µM
- TGI [24]: > 100 µM
- TGI [25]: > 100 µM
- TGI [26]: > 100 µM
- TGI [27]: > 100 µM
- TGI [28]: > 100 µM
- TGI [29]: > 100 µM
- TGI [30]: > 100 µM
- TGI [31]: > 100 µM
- TGI [32]: > 100 µM
- TGI [33]: > 100 µM
- TGI [34]: > 100 µM
- TGI [35]: > 100 µM
- TGI [36]: > 100 µM
- TGI [37]: > 100 µM
- TGI [38]: > 100 µM
- TGI [39]: > 100 µM
- TGI [40]: > 100 µM
- TGI [41]: > 100 µM
- TGI [42]: > 100 µM
- TGI [43]: > 100 µM
- TGI [44]: > 100 µM
- TGI [45]: > 100 µM
- TGI [46]: > 100 µM
- TGI [47]: > 100 µM
- TGI [48]: > 100 µM
- TGI [49]: > 100 µM
- TGI [50]: > 100 µM

Structure (SMILES): COc1ccccc1N1C(=O)/C(=C\c2cc(OC)c(OC)c(OC)c2)SC1c1ccccc1 (stereo not given)
- TGI [1]: > 100 µM
- TGI [2]: > 100 µM
- TGI [3]: > 100 µM
- TGI [4]: > 100 µM
- TGI [5]: > 100 µM
- TGI [51]: > 100 µM
- TGI [6]: > 100 µM
- TGI [7]: > 100 µM
- TGI [8]: > 100 µM
- TGI [9]: > 100 µM
- TGI [10]: > 100 µM
- TGI [11]: > 100 µM
- TGI [12]: > 100 µM
- TGI [13]: 25.4 µM
- TGI [14]: > 100 µM
- TGI [15]: > 100 µM
- TGI [16]: 42.5 µM
- TGI [52]: > 100 µM
- TGI [17]: > 100 µM
- TGI [18]: 53.5 µM
- TGI [19]: 91.7 µM
- TGI [20]: > 100 µM
- TGI [53]: 45.5 µM
- TGI [21]: > 100 µM
- TGI [22]: > 100 µM
- TGI [23]: > 100 µM
- TGI [25]: > 100 µM
- TGI [54]: > 100 µM
- TGI [26]: > 100 µM
- TGI [27]: > 100 µM
- TGI [29]: > 100 µM
- TGI [30]: > 100 µM
- TGI [31]: 38.2 µM
- TGI [55]: 81.4 µM
- TGI [32]: > 100 µM
- TGI [33]: > 100 µM
- TGI [34]: > 100 µM
- TGI [56]: 72.7 µM
- TGI [35]: > 100 µM
- TGI [36]: > 100 µM
- TGI [37]: > 100 µM
- TGI [38]: > 100 µM
- TGI [39]: > 100 µM
- TGI [40]: > 100 µM
- TGI [41]: > 100 µM
- TGI [57]: > 100 µM
- TGI [58]: > 100 µM
- TGI [42]: > 100 µM
- TGI [59]: > 100 µM
- TGI [44]: > 100 µM
- TGI [45]: > 100 µM
- TGI [46]: > 100 µM
- TGI [47]: > 100 µM
- TGI [48]: > 100 µM
- TGI [49]: > 100 µM
- TGI [50]: > 100 µM

Structure (SMILES): C/C(=N\O)c1ccc2cc(Br)c3ccccc3c2c1
- TGI [1]: 35.2 µM
- TGI [2]: > 100 µM
- TGI [3]: 34.7 µM
- TGI [4]: > 100 µM
- TGI [5]: 31.9 µM
- TGI [51]: 32.8 µM
- TGI [6]: 32 µM
- TGI [7]: 46.6 µM
- TGI [8]: 46.8 µM
- TGI [9]: > 100 µM
- TGI [10]: 37.5 µM
- TGI [11]: > 100 µM
- TGI [13]: 50.9 µM
- TGI [14]: 32 µM
- TGI [15]: 44.4 µM
- TGI [16]: 43.6 µM
- TGI [52]: 44.7 µM
- TGI [17]: 28.7 µM
- TGI [18]: 69.9 µM
- TGI [19]: 41.2 µM
- TGI [20]: 32.1 µM
- TGI [53]: 61.1 µM
- TGI [21]: > 100 µM
- TGI [22]: 33 µM
- TGI [23]: 47.2 µM
- TGI [25]: 43 µM
- TGI [54]: 33.3 µM
- TGI [26]: > 100 µM
- TGI [27]: 25.8 µM
- TGI [28]: > 100 µM
- TGI [29]: > 100 µM
- TGI [30]: 39.8 µM
- TGI [31]: > 100 µM
- TGI [55]: 35.3 µM
- TGI [32]: 25.8 µM
- TGI [33]: 42.6 µM
- TGI [56]: > 100 µM
- TGI [35]: 29.7 µM
- TGI [36]: 36.7 µM
- TGI [37]: > 100 µM
- TGI [38]: 64 µM
- TGI [39]: 60.9 µM
- TGI [40]: 93.3 µM
- TGI [57]: 47.5 µM
- TGI [58]: 32.6 µM
- TGI [42]: > 100 µM
- TGI [43]: > 100 µM
- TGI [44]: 88.2 µM
- TGI [45]: 33.2 µM
- TGI [46]: 45.9 µM
- TGI [47]: 43.2 µM
- TGI [48]: 35.4 µM
- TGI [49]: 48.3 µM
- TGI [50]: 20.5 µM
